Several values for one entry are separate records, joined by “and”; a condition that tells them apart may be missing. Identical values can stand only once. Like-named read-outs stand apart in the source and are kept apart here.
Key:
[1] = for Solubility as percentage of the solubility of potassium formate in water: 68-86° F. (20-30° C.); for Solubility (g K2O/100 g H2O): water
From the text: The table below lists the solubilities of various potassium fertilizers in water (as K2O) on a weight basis:

[2] = first farm soil, duplicate columns A and B
[3] = From the text: The irrigation water at the second farm was from a different source than the first farm.
[4] = for Liquid Eluted after 60 min / Liquid Eluted after 120 min / Time (50 g of liquid, in min) / Liquid Eluted after 240 min: Ca formate 22 ppm by moles, average of two columns; for Liquid Eluted after 60 min / Liquid Eluted after 120 min / Time (50 g of liquid, in min): HCO2H 0.33% by weight
From the text: The objective was to investigate the behavior of different irrigation water treatments and determine the relative amounts of water that passed through the soil columns. The column retention times reflect the rate at which the liquid passes through the soil. Understanding these retention times provides insights about the transport and movement of irrigation water (and any fertilizers dissolved therein) through the soil, which has implications for the volume of water passing into and through the root zone, nutrient availability to crops, leaching of contaminants, and overall soil health.
The data in Table 1 is for the average of the two soil samples.

[5] = ICP and flow injection (FIA) analyses of solutions passed through soil columns, second farm; conditions: single soil sample
From the text: FIA was used to determine the content of the listed anion (e.g., NO3, Cl, PO4, etc.). Results are presented from a single soil sample.

[6] = first pass, dry soil, second farm (FIG. 3)
[7] = 1st pass, Alternating = formic acid pass
[8] = 2nd pass, Alternating = calcium formate pass
[9] = 3rd pass, Alternating = formic acid pass
[10] = 4th pass, Alternating = calcium formate pass
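Throughout, for Mn in solution passed through soil column (ICP): eluate from PVC columns holding 100 g of dry ground farm soil, analysed by ICP-OES for element content after the solution had drained through, irrigation water measured as received for reference.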

## [Cl-].[K+] [KCl, potassium chloride]
[1]
  Solubility as percentage of the solubility of potassium formate in water: about 12%
[1]; 32 ° F.
  Solubility (g K2O/100 g H2O): 18 g K2O/100 g H2O
[1]; 68 ° F.
  Solubility (g K2O/100 g H2O): 22 g K2O/100 g H2O
[1]; 86 ° F.
  Solubility (g K2O/100 g H2O): 24 g K2O/100 g H2O

## O=C[O-].O=C[O-].[Ca+2] [Ca formate, calcium formate]
[2]; 1st pass
  B in solution passed through soil column (ICP): 4.35 ppm and 4.97 ppm
  Ca in solution passed through soil column (ICP): 135.1 ppm and 142.4 ppm
  K in solution passed through soil column (ICP): 10.81 ppm and 11.82 ppm
  Mg in solution passed through soil column (ICP): 53.6 ppm and 56.4 ppm
  Mn in solution passed through soil column (ICP): 1.95 ppm and 2.09 ppm
  Na in solution passed through soil column (ICP): 82.3 ppm and 88.9 ppm
  P in solution passed through soil column (ICP): 0.45 ppm and 0.36 ppm
  S in solution passed through soil column (ICP): 99.1 ppm and 103.0 ppm
  Si in solution passed through soil column (ICP): 26.5 ppm and 27.6 ppm
[2]; 2nd pass
  B in solution passed through soil column (ICP): 2.41 ppm and 2.40 ppm
  Ca in solution passed through soil column (ICP): 26.6 ppm and 25.2 ppm
  K in solution passed through soil column (ICP): 5.69 ppm and 5.73 ppm
  Mg in solution passed through soil column (ICP): 10.4 ppm and 9.8 ppm
  Mn in solution passed through soil column (ICP): 0.19 ppm and 0.22 ppm
  Na in solution passed through soil column (ICP): 36.8 ppm and 38.2 ppm
  P in solution passed through soil column (ICP): 0.40 ppm and 0.41 ppm
  S in solution passed through soil column (ICP): 21.2 ppm and 19.6 ppm
  Si in solution passed through soil column (ICP): 25.2 ppm and 26.2 ppm
[2]; 3rd pass
  B in solution passed through soil column (ICP): 1.74 ppm and 1.48 ppm
  Ca in solution passed through soil column (ICP): 21.1 ppm and 19.4 ppm
  K in solution passed through soil column (ICP): 6.01 ppm and 5.41 ppm
  Mg in solution passed through soil column (ICP): 8.2 ppm and 7.6 ppm
  Na in solution passed through soil column (ICP): 32.7 ppm and 31.1 ppm
  P in solution passed through soil column (ICP): 0.68 ppm and 0.58 ppm
  S in solution passed through soil column (ICP): 13.9 ppm and 13.0 ppm
  Si in solution passed through soil column (ICP): 28.4 ppm and 26.2 ppm
[2]; 4th pass
  B in solution passed through soil column (ICP): 0.69 ppm and 0.73 ppm
  Ca in solution passed through soil column (ICP): 15.0 ppm and 15.9 ppm
  K in solution passed through soil column (ICP): 5.09 ppm and 5.06 ppm
  Mg in solution passed through soil column (ICP): 5.9 ppm and 6.0 ppm
  Mn in solution passed through soil column (ICP): 0.05 ppm and 0.04 ppm
  Na in solution passed through soil column (ICP): 21.6 ppm and 22.9 ppm
  P in solution passed through soil column (ICP): 0.56 ppm
  S in solution passed through soil column (ICP): 5.3 ppm and 5.5 ppm
  Si in solution passed through soil column (ICP): 22.3 ppm and 22.7 ppm
[3]; [6]
  Liquid retained by the soil samples on average: 43 to 44 mL
  Time at which solution had completed passing through the soil column on average: about 240 minutes
  Time of first appearance of liquid from the columns on average: 20 to 30 min
[3]; first pass, second farm, from 20-30 minutes up to 240 minutes
  Amount of liquid passed through the columns compared with irrigation water at the same lengths of time: more than three times as much
[3]; second pass, wet/damp soil, second farm (FIG. 4)
  Time at which solution had completed passing through the soil column on average: about 390 minutes
[4]; 1st pass, first farm soil
  Drainage Rate: Time (50 g), percentage relative to irrigation water: 66.7%
  Drainage Rate: liquid eluted at 60 mins, percentage relative to irrigation water: 180%
  Drainage Rate: liquid eluted at 120 mins, percentage relative to irrigation water: 152%
  Liquid Eluted after 60 min: 28.6 g
  Liquid Eluted after 120 min: 53.9 g
  Time (50 g of liquid, in min): 120 min
[4]; 2nd pass, first farm soil
  Drainage Rate: Time (50 g), percentage relative to irrigation water: 66.7%
  Drainage Rate: liquid eluted at 60 mins, percentage relative to irrigation water: 157%
  Drainage Rate: liquid eluted at 120 mins, percentage relative to irrigation water: 150%
  Drainage Rate: liquid eluted at 240 min, percentage relative to irrigation water: 137%
  Liquid Eluted after 60 min: 33.3 g
  Liquid Eluted after 120 min: 59.9 g
  Time (50 g of liquid, in min): 120 min
  Liquid Eluted after 240 min: 98.5 g
[4]; 3rd pass, first farm soil
  Drainage Rate: Time (50 g), percentage relative to irrigation water: 83.3%
  Drainage Rate: liquid eluted at 60 mins, percentage relative to irrigation water: 138%
  Drainage Rate: liquid eluted at 120 mins, percentage relative to irrigation water: 135%
  Drainage Rate: liquid eluted at 240 min, percentage relative to irrigation water: 131%
  Liquid Eluted after 60 min: 26.4 g
  Liquid Eluted after 120 min: 48.8 g
  Time (50 g of liquid, in min): 150 min
  Liquid Eluted after 240 min: 86.7 g
[4]; 4th pass, first farm soil
  Drainage Rate: Time (50 g), percentage relative to irrigation water: 83.3%
  Drainage Rate: liquid eluted at 60 mins, percentage relative to irrigation water: 123%
  Drainage Rate: liquid eluted at 120 mins, percentage relative to irrigation water: 118%
  Drainage Rate: liquid eluted at 240 min, percentage relative to irrigation water: 110%
  Liquid Eluted after 60 min: 24.1 g
  Liquid Eluted after 120 min: 44.6 g
  Time (50 g of liquid, in min): 150 min
  Liquid Eluted after 240 min: 75.0 g
[4]; first pass, dry soil, first farm, 100 ml added (FIG. 1)
  Liquid retained by the soil samples on average: about 36 ml
[4]; fixed periods 60, 120 and 240 mins, first farm soil
  Improvement in amount of liquid eluted compared to the irrigation water: 110-180%
[5]; [7]
  B in solution passed through soil column (ICP): 0.5 ppm
  Ca in solution passed through soil column (ICP): 76.1 ppm
  Cl^− in solution passed through soil column (FIA): 288.0 ppm
  K in solution passed through soil column (ICP): 4.5 ppm
  Mg in solution passed through soil column (ICP): 19.6 ppm
  NO3^− in solution passed through soil column (FIA): 0.0 ppm
  Na in solution passed through soil column (ICP): 169.0 ppm
  P in solution passed through soil column (ICP): 1.0 ppm
  S in solution passed through soil column (ICP): 51.4 ppm
  Si in solution passed through soil column (ICP): 26.3 ppm
[5]; [8]
  B in solution passed through soil column (ICP): 0.3 ppm
  Ca in solution passed through soil column (ICP): 24.0 ppm
  Cl^− in solution passed through soil column (FIA): 92.1 ppm
  K in solution passed through soil column (ICP): 2.5 ppm
  Mg in solution passed through soil column (ICP): 6.1 ppm
  NO3^− in solution passed through soil column (FIA): 0.0 ppm
  Na in solution passed through soil column (ICP): 110.4 ppm
  P in solution passed through soil column (ICP): 1.1 ppm
  S in solution passed through soil column (ICP): 14.8 ppm
  Si in solution passed through soil column (ICP): 26.9 ppm
[5]; [9]
  B in solution passed through soil column (ICP): 0.2 ppm
  Ca in solution passed through soil column (ICP): 21.7 ppm
  Cl^− in solution passed through soil column (FIA): 91.9 ppm
  K in solution passed through soil column (ICP): 2.4 ppm
  Mg in solution passed through soil column (ICP): 5.5 ppm
  NO3^− in solution passed through soil column (FIA): 0.0 ppm
  Na in solution passed through soil column (ICP): 96.4 ppm
  P in solution passed through soil column (ICP): 1.0 ppm
  S in solution passed through soil column (ICP): 10.3 ppm
  Si in solution passed through soil column (ICP): 24.3 ppm
[5]; [10]
  B in solution passed through soil column (ICP): 0.2 ppm
  Ca in solution passed through soil column (ICP): 30.4 ppm
  Cl^− in solution passed through soil column (FIA): 93.6 ppm
  K in solution passed through soil column (ICP): 2.4 ppm
  Mg in solution passed through soil column (ICP): 7.5 ppm
  NO3^− in solution passed through soil column (FIA): 0.0 ppm
  Na in solution passed through soil column (ICP): 95.4 ppm
  P in solution passed through soil column (ICP): 0.9 ppm
  S in solution passed through soil column (ICP): 10.1 ppm
  Si in solution passed through soil column (ICP): 23.3 ppm

## O=S([O-])([O-])=S.[K+].[K+] [K2SSO3, potassium thiosulfate]
[1]
  Solubility as percentage of the solubility of potassium formate in water: about 40%
[1]; 32 ° F.
  Solubility (g K2O/100 g H2O): 48 g K2O/100 g H2O
[1]; 68 ° F.
  Solubility (g K2O/100 g H2O): 77 g K2O/100 g H2O
[1]; 86 ° F.
  Solubility (g K2O/100 g H2O): 87 g K2O/100 g H2O

From patent publication US12686652B2, “Methods of increasing irrigation water and fertilizer delivery to soil using formic acid and formate salts, making a formate salt from carbon dioxide, and generating a carbon credit” (Deerpoint Group, Inc., priority 2023, dated 2026)
